Assay results published in patent US12139481B2, “Compositions comprising macrocycle derivatives incorporating bridged macrocycles and methods of producing and using same” (Southwestern Oklahoma State University, priority 2015, dated 2024).
Read-outs that look alike come from different tables or passages of the source.

Legend:
[1] = tested on: Cryptococcus neoformans ATCC 90113; assay: Antimicrobial microdilution assay against Cryptococcus neoformans (modified CLSI/NCCLS, optical density); type: cell-based; details: for X more potent than Amphotericin B: C. neoformans, ratio of molar IC50 to Amphotericin B; for C. neoformans IC50 / IC50: in vitro, C. neoformans ATCC 90113; for IC50: read-out: C. neoformans IC50 (mol/L)
Method: Summary: Various macrocyclic derivatives constructed in accordance with the presently disclosed and/or claimed inventive concept(s) were screened in vitro against Cryptococcus neoformans ATCC 90113 using a microdilution assay. The minimum fungicidal concentration (MFC), the lowest test concentration that kills the organism, was determined in broth media.
Antimicrobial assay: Cryptococcus neoformans ATCC 90113 were obtained from the American Type Culture Collection (Manassas, VA.). The susceptibility testing was performed using a modified version of the CLSI (formerly NCCLS) methods (see below), and optical density was used to monitor growth. Samples were serially diluted in 20% DMSO/saline and transferred in duplicate to 96-well flat bottom microplates. Microbial inocula were prepared by correcting the OD630 of cell/spore suspensions in incubation broth RPMI at pH 6.0 to afford final desired target inocula. Amphotericin B (“AMB;” ICN Biomedicals, OH) was used as drug control. The organism concentration was read at 630 nm using the Biotek Powerwave XS plate reader (Bio-Tek instruments, VT) prior to and after incubation. Minimum fungicidal concentrations were determined by removing 5 μL from each clear well, transferring to agar, and incubating until growth was seen. The MFC/MBC is defined as the lowest test concentration that kids the organism (allows no growth on agar).
References for NCCLS methods referenced above: 1 NCCLS. Reference method for broth dilution antifungal susceptibility testing of yeasts, Vol. 22. Approved standard, 2nd ed. Wayne: National Committee for Clinical Laboratory Standards; 2002: 1-51. 2 NCCLS. Reference method for broth dilution antifungal susceptibility testing of conidium forming filamentous fungi, Vol. 18. Proposed standard M38-P. Wayne: National Committee for Clinical Laboratory Standards; 1998: 1-39. 3 NCCLS. Methods for dilution antimicrobial susceptibility tests for bacteria that grow aerobically, Vol. 20. NCCLS Document M7-A5. Wayne: National Committee for Clinical Laboratory Standards; 2000: 1-58.
The term “IC50” as used herein will be understood to refer to a test concentration in mol/L that affords 50% inhibition of the microbe relative to negative and positive controls. […] The abbreviation “MFC” as used herein will be understood to refer to a minimum fungicidal concentration, or the lowest test concentration in mol/L that kills the organism. All IC50s are calculated using the XLfit® fit curve fitting software (ID Business Solutions Ltd, Guildford, Surrey, UK).
General Experimental Procedures. All organisms were obtained from the American Type Culture Collection (Manassas, VA) and include the fungi Candida albicans ATCC 90028, C. glabrata ATCC 90030, C. krusei ATCC 6258, and Cryptococcus neoformans ATCC 90113, and the bacteria Staphylococcus aureus ATCC 29213 and methicillin-resistant S. aureus ATCC 33591 (MRS). All organisms were tested using modified versions of the CLSI (formerly NCCLS) methods. For all organisms, optical density was used to monitor growth (NCCLS, Reference Method for Broth Dilution Antifungal Susceptibility Testing of Yeasts; Approved Standard M27-A2. National Committee on Clinical Laboratory Standards, 2002 22 (15); and NCCLS, Methods for Dilution Antimicrobial Susceptibility Tests for Bacteria that Grow Aerobically; Approved Standard, Seventh Edition M7-A7. National Committee on Clinical Laboratory Standards, 2006. 26(2)).
Samples (dissolved in DMSO) were serially-diluted in 20% DMSO/saline and transferred (10 μL) in duplicate to 96 well flat bottom microplates.

[2] = tested on: L. donovani promastigotes; assay: Antileishmanial Alamar Blue assay on promastigotes; type: cell-based, Leishmania donovani; details: for X more potent than Pentamidine: L. donovani, ratio of molar IC50 to Pentamidine
Method: Methods: The compounds were screened in vitro against the promastigote forms of the leishmania parasites employing the Alamar Blue assay as discussed below.
Antileishmanial activity of the compounds was tested in vitro against a culture of L. donovani promastigotes, grown in RPMI 1640 medium supplemented with 10% fetal calf serum (FCS, Gibco Chem. Co., Grand Island, NY) at 26° C. A 3-day-old culture was diluted to 5×10^5 promastigotes/mL. Drug dilutions (50-3.1 μg/mL) were prepared directly in cell suspension in 96-well plates. Plates were incubated at 26° C. for 48 hours, and growth of leishmania promastigotes was determined by Alamar Blue assay. Standard fluorescence was measured on a FLUOstar® Galaxy plate reader (BMG Lab Technologies, Ortenberg, Germany) at an excitation wavelength of 544 nm and emission wavelength of 590 nm. Pentamidine and amphotericin B were used as the standard antileishmanial agents. Percent growth was calculated and plotted versus test concentration for computing the IC50 values.

[3] = promastigotes, 48 hours, Alamar Blue
[4] = promastigotes, 48 hours, Alamar Blue, read-out: L. donavani IC50

Compound | X more potent than Amphotericin B [1] | C. neoformans IC50 [1] [µg/mL] | IC50 [1] [µM] | X more potent than Pentamidine [2] | L. donovani IC50 [2, 3] [µg/mL] | IC50 [2, 4] [µM] | IC50 ([2]; Leishmania donovani, 48 h, read-out: L. donavani IC50 (mol/L)) [µM] | IC50 ([2]; Leishmania donovani, promastigotes, 48 hours, Alamar Blue, read-out: L. donovani IC50) [µg/mL] | IC50 ([2]; Leishmania donovani, read-out: IC50 against L. donovani) [µM]
[Zn(dcp1-SB-cyclen)(OAc)]PF6 [OB110A] | 0.30 | 0.610 | 0.805 | 0.11 | 38.32 | 50.6 |  |  | 
CC(=O)[O-].F[P-](F)(F)(F)(F)F.[Zn+2].c1ccc(CN2CCCNCCN(Cc3ccccc3)CCCNCC2)cc1 [SLK07B, [Zn(Bn2Cyclam)(OAc)]PF6] | 0.01 | 19.840 |  | 1.16 | 2.97 |  |  |  | 
CC(=O)[O-].Clc1cc(CN2CCNCCN3CCN(CC3)CC2)cc(Cl)n1.F[P-](F)(F)(F)(F)F.[Ni+2] [OB106, [Ni(dcp1-SB-cyclen)(OAc)]PF6] | 0.38 | 0.390 | 0.628 | 0.14 | 23.19 | 37.3 |  |  | 
N=C(N)c1ccc(OCCCCCOc2ccc(C(=N)N)cc2)cc1 [PENT, Pentamidine, reference compound] |  |  |  | 1.00 |  |  | 5.32 | 1.81 | 5.32
Clc1cc(CN2CCCNCCN(Cc3cc(Cl)nc(Cl)c3)CCCNCC2)cc(Cl)n1 [DJD29, (DCP)2Cyclam] |  |  |  | 0.28 | 9.76 | 18.8 |  |  | 
C1CNCCN2CCCNCCN(C1)CCC2.O.[Cl-].[Cl-].[Cl-].[Fe+3] [SLK36, Fe(H2PBCyclam)Cl3•H2O] | 0.03 | 3.330 | 7.92 |  |  |  |  |  | 
CC(=O)[O-].CN1CCN2CCN(CC1)CCN(Cc1ccccc1)CC2.F[P-](F)(F)(F)(F)F.F[P-](F)(F)(F)(F)F.[Co+3] [TRH15, [Co(Bn1Me1Bcyclen)(OAc)][PF6]2] | 0.21 | ≤ 0.800 | 1.13 |  |  |  |  |  | 
[Cu(Bn2PBCyclen)(C2H3O2)0.4][PF6]1.6 [AW040] | 0.02 | 7.050 | 9.91 |  |  |  |  |  | 
CC(=O)[O-].CC(=O)[O-].F[P-](F)(F)(F)(F)F.F[P-](F)(F)(F)(F)F.O.O.O.O.O.[Cu+2].[Cu+2].c1cc(CN2CCCN3CCNCCCN(CC3)CC2)ccc1CN1CCCN2CCNCCCN(CC2)CC1 [TJH416B, [Cu2(H2-p-CB-cyclams)(OAc)2][PF6]2•5H2O] | 0.09 | 3.030 | 2.57 |  |  |  |  |  | 
C1CNCCN2CCCNCCN(C1)CCC2.CC(=O)[O-].F[P-](F)(F)(F)(F)F.F[P-](F)(F)(F)(F)F.F[P-](F)(F)(F)(F)F.[Cu+2].[NH4+].[NH4+] [SLK40B, [Cu(H2PBCyclam)(OAc)]PF6•2NH4PF6] | 0.03 | 6.930 | 8.31 |  |  |  |  |  | 
[Zn(Me1Pic1-CB-cyclen)](PF6)2 [KRW49] | 0.03 | 5.230 | 7.53 |  |  |  |  |  | 
[Ni2(m-SB-cyclam-cyclen)(OAc)][PF6]3 [CMB033] | 0.16 | 1.710 | 1.5 |  |  |  |  |  | 
[Cu2(m-SB-cyclam-cyclen)(OAc)][PF6]3•2H2O [CMB034] | 0.35 | ≤ 0.800 | 0.676 |  |  |  |  |  | 
CC(=O)[O-].CC(=O)[O-].F[P-](F)(F)(F)(F)F.F[P-](F)(F)(F)(F)F.O.[Co+2].[Co+2].c1cc(CN2CCNCCCN3CCN(CC3)CC2)cc(CN2CCNCCCN3CCN(CC3)CC2)c1 [OB55, [Co2(m-SB-Homocyclens)(OAc)2][PF6]2•H2O] | 0.05 | 5.120 | 4.78 |  |  |  |  |  | 
Ni(Py-SB-Cyclam)Cl2•3H2O [ADS20] | 0.01 | 18.590 | 37.1 |  |  |  |  |  | 
[Cu2(p-SB-cyclam-cyclen)(OAc)1.2][PF6]2.8 [CMB018] | 0.09 | 3.020 | 2.67 |  |  |  |  |  | 
CN1CCN2CCN(CC1)CCN(Cc1nc3ccccc3[nH]1)CC2.[Cl-].[Cl-].[Mn+2] [SJA227, [Mn(CB-BI-cyclen)(Cl)2]] | 0.04 | 1.930 | 5.63 |  |  |  |  |  | 
m-CB-cyclam-cyclen [DGJ036] | 0.02 | 5.800 | 10.5 |  |  |  |  |  | 
CC(=O)[O-].CC(=O)[O-].CC(=O)[O-].F[P-](F)(F)(F)(F)F.F[P-](F)(F)(F)(F)F.F[P-](F)(F)(F)(F)F.[Co+3].[Co+3].c1cc(CN2CCCN3CCNCCCN(CC3)CC2)ccc1CN1CCCN2CCNCCCN(CC2)CC1 [TJH414B, [Co2(H2-p-CB-cyclams)(OAc)3][PF6]3] | 1.31 | 0.234 | 0.182 |  |  |  |  |  | 
CN1CCCN2CCN(C)CCCN(CC1)CC2.F[P-](F)(F)(F)(F)F.[Cl-].[Cl-].[Co+3] [SAH06#2, [Co(Bcyclam)Cl2]PF6] | 0.01 | 19.220 | 36.3 |  |  |  |  |  | 
[Zn(H2PBCyclam)(OAc)]PF6•2.5NH4PF6 [SLK41] | 0.04 | 5.190 | 5.66 |  |  |  |  |  | 
[Fe(Py-SB-Cyclam)Cl]PF6 [ADS18C] | 0.01 | 18.540 | 33.5 |  |  |  |  |  | 
[Mn(Py-SB-Cyclam)Cl]PF6•3H2O [ADS17] | 0.03 | 5.220 | 8.6 |  |  |  |  |  | 
C1CNCCN2CCCNCCN(C1)CCC2.O.O.O.[Cl-].[Cl-].[Cl-].[Mn+3] [SLK37, Mn(H2PBCyclam)Cl3•3H2O] | 0.06 | 1.780 | 3.91 |  |  |  |  |  | 
[Fe2(m-cyclam-homocyclen)][FeCl4]2•7H2O [AW048] | 0.17 | 1.660 | 1.38 |  |  |  |  |  | 
[Co2(p-CB-Homocyclens)(OAc)2][PF6]2 [TJH379A] | 0.32 | ≤ 0.800 | 0.74 |  |  |  |  |  | 
Fe(Bn2Cyclam)Cl2•0.5 H2O [TJH398A] |  |  |  | 1.20 | 2.28 | 4.42 |  |  | 
F[P-](F)(F)(F)(F)F.F[P-](F)(F)(F)(F)F.F[P-](F)(F)(F)(F)F.F[P-](F)(F)(F)(F)F.O.O.[Cu+2].[Cu+2].c1cc(CN2CCNCCCN3CCN(CC3)CC2)ccc1CN1CCNCCCN2CCN(CC2)CC1 [OB49, [Cu2(p-SB-Homocyclens)][PF6]4•2H2O] | 0.38 | ≤ 0.800 | 0.63 |  |  |  |  |  | 
CN1CCCN2CCN(C)CCN(CC1)CC2.F[P-](F)(F)(F)(F)F.[Cl-].[Cl-].[Mn+3] [DLM10, [Mn(B13N4)Cl2]PF6] | 0.01 | 9.522 | 18.6 |  |  |  |  |  | 
